Data: US20210330611A1, “THERAPY FOR NEUROLOGICAL DISEASES/DISORDERS” (priority 2020, published 2021)
Structures can show the parent of a compound that is named as a salt. Where two headings read alike, the source gives them in different places.

Assays:
[1] = test system: fibrin- and LPS-induced microglia activation; test: cells; type: cell-based, rat; conditions: for Hit: HTS hit classification
[2] = test system: LPS-induced microglia activation; test: Image-based assay of LPS-induced microglia activation (HTS and dose response); type: cell-based, rat; conditions: for LPS % inhibition / inhibition at 10 µM: primary microglia HTS, LPS stimulation; for inhibition at 10 µM: Rattus norvegicus, Microglia, read-out: LPS % inhibition
[3] = test system: primary rat microglia; test: Cell toxicity (dead cells, size <150 μm2) in LPS assay; conditions: for LPS % cell toxicity: primary microglia HTS, LPS stimulation, decreased size (<150 μm^2) as marker of toxicity; for IC50: read-out: Cell Toxicity IC50 (uM) [LPS assay]
[4] = test system: fibrin-induced microglia activation; test: Image-based assay of fibrin-induced microglia activation (HTS and dose response); type: cell-based, rat; conditions: for Fibrin % inhibition / inhibition at 10 µM: primary microglia HTS, fibrin stimulation; for inhibition at 10 µM: Rattus norvegicus, Microglia, read-out: Fibrin % inhibition
[5] = test system: primary rat microglia; test: Cell toxicity (dead cells, size <150 μm2) in coated fibrin (cFib) assay; conditions: for Fibrin % cell toxicity: primary microglia HTS, fibrin stimulation, decreased size (<150 μm^2) as marker of toxicity; for IC50: read-out: Cell Toxicity IC50 (uM) [cFib assay];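 for Fibrin % cell toxicity: share of dead cells sized under 150 µm2 at 10 µM in fibrin-stimulated microglia HTS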
[6] = quadrant by fibrin and LPS inhibition in HTS of 1907 compounds
[7] = increased cell size (>800 μm^2) as marker of activation
[8] = 48 h, increased cell size (>800 μm^2) as marker of activation
[9] = HTS of 1907 compounds, quadrant by fibrin and LPS inhibition
[10] = hit classification in microglia HTS
[11] = LPS-induced microglia activation, dose response, read-out: LPS IC50 (uM) (Suppl. Table 7)
[12] = Table 1, dose response 0.001-20 μM, triplicates, primary rat microglia, 48 h, read-out: LPS IC50
[13] = Table 3, read-out: LPS IC50 (uM) (Suppl. Table 7)
[14] = dose response, LPS-induced microglia activation, read-out: LPS IC50
[15] = Table 1, dose response 0.001-20 μM, triplicates, primary rat microglia, 48 h, read-out: Fibrin IC50
[16] = Table 3, read-out: Fibrin IC50 (uM) (Suppl. Table 7)
[17] = dose response, fibrin-induced microglia activation, read-out: Fibrin IC50
[18] = fibrin-induced microglia activation, dose response, read-out: Fibrin IC50 (uM) (Suppl. Table 7)

## CCOC(=O)C1=C[C@@H](OC(CC)CC)[C@H](NC(C)=O)[C@@H](N)C1 [Oseltamivir Phosphate]
[1]; [6]
  Quadrant (FIG. 5b): Q4
[2]; [7]
  LPS % inhibition: 13%
[3]
  LPS % cell toxicity: 0%
[4]; [7]
  Fibrin % inhibition: −7%
[5]
  Fibrin % cell toxicity: 1%

## CCOC(=O)C1=C[C@@H](OC(CC)CC)[C@H](NC(C)=O)[C@@H](N)C1 [Oseltamivir]
[1]; [6]
  Quadrant (FIG. 5b): Q4
[2]; [8]
  inhibition at 10 µM: 26%
[3]
  LPS % cell toxicity: 1%
[4]; [7]
  Fibrin % inhibition: −28%
[5]
  Fibrin % cell toxicity: 1%

## Cc1onc(-c2ccccc2)c1C(=O)N[C@@H]1C(=O)N2[C@@H]1SC(C)(C)[C@@H]2C(=O)[O-].[Na+] [Oxacillin Sodium]
[1]; [6]
  Quadrant (FIG. 5b): Q4
[2]; [7]
  LPS % inhibition: 11%
[3]
  LPS % cell toxicity: 0%
[4]; [7]
  Fibrin % inhibition: −20%
[5]
  Fibrin % cell toxicity: 0%

## O=C1[O][Pt]2([NH][C@@H]3CCCC[C@H]3[NH]2)[O]C1=O [Oxaliplatin, reference compound]
[1]
  Hit: HIT (Hits were defined as molecules that exhibited greater than 50% inhibition of either fibrin or LPS activation)
[1]; [9]
  Quadrant (FIG. 5b): Q3
[1]; Table 1, screen at 10 μM
  Quadrant (FIG. 5b): Q3
[1]; Table 3
  Cherry-picked Hit (Suppl. Table 7): HIT (Hits were defined as molecules that exhibited greater than 50% inhibition of either fibrin or LPS activation)
[1]; Table 3, screen at 10 μM
  Quadrant (FIG. 5b): Q3
[1]; [10]
  Cherry-picked Hit (Suppl. Table 7): HIT (Hits were defined as molecules that exhibited greater than 50% inhibition of either fibrin or LPS activation)
[1]; [6]
  Quadrant (FIG. 5b): Q3
[1]; quadrant by fibrin and LPS inhibition, HTS at 10 μM
  Quadrant (FIG. 5b): Q3
[2]; [11]
  IC50: 15 µM
[2]; [12]
  IC50: 15 µM
[2]; [13]
  IC50: 15 µM
[2]; [14]
  IC50: 15 µM
[2]; compounds at 10 μM
  LPS % inhibition: 21%
[2]; [7]
  LPS % inhibition: 41%
[3]; LPS assay
  IC50: > 20 µM
[3]; Table 3
  IC50: > 20 µM
[4]; [15]
  IC50: 5 µM
[4]; [16]
  IC50: 5 µM
[4]; [17]
  IC50: 5 µM
[4]; [18]
  IC50: 5 µM
[4]; compounds at 10 μM
  Fibrin % inhibition: 66%
[4]; [7]
  Fibrin % inhibition: 96%
[5]; Table 3
  IC50: > 20 µM
[5]; cFib assay
  IC50: > 20 µM

## O=C(O)CCc1nc(-c2ccccc2)c(-c2ccccc2)o1 [Oxaprozin]
[1]; [6]
  Quadrant (FIG. 5b): Q4
[2]; [8]
  inhibition at 10 µM: 15%
[3]
  LPS % cell toxicity: 1%
[4]; [7]
  inhibition at 10 µM: 0%
[5]
  Fibrin % cell toxicity: 1%

## NC(=O)N1c2ccccc2CC(=O)c2ccccc21 [Oxcarbazepine, Trileptal]
[1]; [6]
  Quadrant (FIG. 5b): Q4
[2]; [7]
  LPS % inhibition: 35%
[3]
  LPS % cell toxicity: 0%
[4]; [7]
  Fibrin % inhibition: 3%
[5]
  Fibrin % cell toxicity: 1%

## CCN(CC)CCOCCOC(=O)C(CC)(CC)c1ccccc1 [Oxeladin]
[1]; [6]
  Quadrant (FIG. 5b): Q4
[2]; [8]
  inhibition at 10 µM: 6%
[3]
  LPS % cell toxicity: 0%
[4]; [7]
  inhibition at 10 µM: -27%
[5]
  Fibrin % cell toxicity: 1%

## CN(C(=O)CN(CCO)CC(=O)N(C)C(C)(C)Cc1ccccc1)C(C)(C)Cc1ccccc1 [Oxethazaine]
[1]; [6]
  Quadrant (FIG. 5b): Q4
[2]; [8]
  inhibition at 10 µM: 42%
[3]
  LPS % cell toxicity: 0%
[4]; [7]
  inhibition at 10 µM: 25%
[5]
  Fibrin % cell toxicity: 1%

## COC(=O)Nc1nc2ccc([S+]([O-])c3ccccc3)cc2[nH]1 (stereo not shown) [Oxfendazole]
[1]; [6]
  Quadrant (FIG. 5b): Q4
[2]; [8]
  inhibition at 10 µM: 20%
[3]
  LPS % cell toxicity: 1%
[4]; [7]
  inhibition at 10 µM: 10%
[5]
  Fibrin % cell toxicity: 0%

## NCCc1cc(O)c(O)cc1O [Oxidopamine Hydrochloride]
[1]; [6]
  Quadrant (FIG. 5b): Q4
[2]; [8]
  inhibition at 10 µM: 19%
[3]
  LPS % cell toxicity: 0%
[4]; [7]
  inhibition at 10 µM: 1%
[5]
  Fibrin % cell toxicity: 0%

## O=C(O)c1ccc[n+]([O-])c1 [Oxiniacic Acid]
[1]; [6]
  Quadrant (FIG. 5b): Q4
[2]; [8]
  inhibition at 10 µM: 12%
[3]
  LPS % cell toxicity: 0%
[4]; [7]
  inhibition at 10 µM: -6%
[5]
  Fibrin % cell toxicity: 1%

## CCCOc1ccc2[nH]c(NC(=O)OC)nc2c1 [Oxybendazole, reference compound]
[1]
  Hit: HIT (Hits were defined as molecules that exhibited greater than 50% inhibition of either fibrin or LPS activation)
[1]; [9]
  Quadrant (FIG. 5b): Q3
[1]; Table 1, screen at 10 μM
  Quadrant (FIG. 5b): Q3
[1]; Table 3
  Cherry-picked Hit (Suppl. Table 7): HIT (Hits were defined as molecules that exhibited greater than 50% inhibition of either fibrin or LPS activation)
[1]; Table 3, screen at 10 μM
  Quadrant (FIG. 5b): Q3
[1]; [10]
  Cherry-picked Hit (Suppl. Table 7): HIT (Hits were defined as molecules that exhibited greater than 50% inhibition of either fibrin or LPS activation)
[1]; [6]
  Quadrant (FIG. 5b): Q3
[2]; [11]
  IC50: 12 µM
[2]; [12]
  IC50: 12 µM
[2]; [13]
  IC50: 12 µM
[2]; [14]
  IC50: 12 µM
[2]; [7]
  LPS % inhibition: 15%
[3]
  LPS % cell toxicity: 1%
[3]; LPS assay
  IC50: > 20 µM
[3]; Table 3
  IC50: > 20 µM
[4]
  Fibrin Selectivity: 2
  Fibrin Selectivity (LOG10): 0.22
[4]; [15]
  IC50: 7 µM
[4]; [16]
  IC50: 7 µM
[4]; [17]
  IC50: 7 µM
[4]; [18]
  IC50: 7 µM
[4]; [7]
  Fibrin % inhibition: 78%
[5]
  Fibrin % cell toxicity: 2%
[5]; Table 3
  IC50: > 20 µM
[5]; cFib assay
  IC50: > 20 µM

## COc1ccc(C(=O)c2ccccc2)c(O)c1 [Oxybenzone]
[1]; [6]
  Quadrant (FIG. 5b): Q4
[2]; [8]
  inhibition at 10 µM: 12%
[3]
  LPS % cell toxicity: 0%
[4]; [7]
  inhibition at 10 µM: -15%
[5]
  Fibrin % cell toxicity: 0%

## CCCCOc1cc(C(=O)OCCN(CC)CC)ccc1N [Oxybuprocaine]
[1]; [6]
  Quadrant (FIG. 5b): Q4
[2]; [8]
  inhibition at 10 µM: 11%
[3]
  LPS % cell toxicity: 0%
[4]; [7]
  inhibition at 10 µM: 7%
[5]
  Fibrin % cell toxicity: 1%

## Cc1cc(C(C)(C)C)c(O)c(C)c1CC1=NCCN1 [Oxymetazoline]
[1]; [6]
  Quadrant (FIG. 5b): Q4
[2]; [8]
  inhibition at 10 µM: 20%
[3]
  LPS % cell toxicity: 0%
[4]; [7]
  inhibition at 10 µM: -13%
[5]
  Fibrin % cell toxicity: 1%

## C[C@]12C/C(=C/O)C(=O)C[C@@H]1CC[C@@H]1[C@@H]2CC[C@@]2(C)[C@H]1CC[C@]2(C)O [Oxymetholone]
[1]; [6]
  Quadrant (FIG. 5b): Q4
[2]; [8]
  inhibition at 10 µM: -7%
[3]
  LPS % cell toxicity: 0%
[4]; [7]
  inhibition at 10 µM: -18%
[5]
  Fibrin % cell toxicity: 1%

## CN1CCCN=C1COC(=O)C(O)(c1ccccc1)C1CCCCC1 (stereo not shown) [Oxyphencyclimine]
[1]; [6]
  Quadrant (FIG. 5b): Q4
[2]; [8]
  inhibition at 10 µM: 11%
[3]
  LPS % cell toxicity: 0%
[4]; [7]
  inhibition at 10 µM: 15%
[5]
  Fibrin % cell toxicity: 1%

## CC[N+](C)(CC)CCOC(=O)C(O)(c1ccccc1)C1CCCCC1 (stereo not shown) [Oxyphenonium]
[1]; [6]
  Quadrant (FIG. 5b): Q4
[2]; [8]
  inhibition at 10 µM: 30%
[3]
  LPS % cell toxicity: 1%
[4]; [7]
  inhibition at 10 µM: -14%
[5]
  Fibrin % cell toxicity: 1%

## Cc1ccc(O)cc1 [P-Cresol]
[1]; [6]
  Quadrant (FIG. 5b): Q4
[2]; [7]
  LPS % inhibition: 15%
[3]
  LPS % cell toxicity: 0%
[4]; [7]
  Fibrin % inhibition: −15%
[5]
  Fibrin % cell toxicity: 0%

## NCCC(O)(P(=O)(O)O)P(=O)(O)O [Pamidronate]
[1]; [6]
  Quadrant (FIG. 5b): Q4
[2]; [8]
  inhibition at 10 µM: -5%
[3]
  LPS % cell toxicity: 0%
[4]; [7]
  inhibition at 10 µM: 0%
[5]
  Fibrin % cell toxicity: 1%
